In patent US11044908B2, “Reactive antibacterial compound and preparation method thereof” (SHENZHEN UNIVERSITY, priority 2015, dated 2021):
Values after ≈ are worked out from the molar mass of the structure shown.

Experiments:
Format in all cases: cell-based
S. aureas = assay: Durable antibacterial activity of glass surfaces modified by antibacterial agents (plate/colony counting method)
E. coli = assay: as above
[1] = test system: E. coli (American Type Culture Collection ATCC 25922); assay: Minimum inhibitory concentration (MIC) test; settings: E. coli ATCC 25922; 24 h culture
Protocol: (§1) The minimum inhibitory concentration (MIC) is the lowest concentration of antibacterial agents that can inhibit the visible growth of bacteria after 24 h culture in a specific environment. Methods for determining the minimum inhibitory concentration can be a constant broth dilution method, a trace broth dilution method, an agar dilution method or an E experiment.

S. aureas (ATCC 6538) = assay: Minimum inhibitory concentration (MIC) test; settings: 24 h culture
Protocol: as §1

Compound	Antibacterial activity of modified glass surface (plate counting method) (S. aureas; wash number 0) [%]	Antibacterial activity of modified glass surface (plate counting method) (S. aureas; wash number 10) [%]	Antibacterial activity of modified glass surface (plate counting method) (S. aureas; wash number 50) [%]	Antibacterial activity of modified glass surface (plate counting method) (S. aureas; wash number 100) [%]	Antibacterial activity of modified glass surface (plate counting method) (E. coli; wash number 0) [%]	Antibacterial activity of modified glass surface (plate counting method) (E. coli; wash number 10) [%]	Antibacterial activity of modified glass surface (plate counting method) (E. coli; wash number 50) [%]	Antibacterial activity of modified glass surface (plate counting method) (E. coli; wash number 100) [%]	Minimum inhibitory concentration (MIC) [1] [mM]	Minimum inhibitory concentration (MIC) (S. aureas (ATCC 6538)) [mM]
C[N+](C)(CCCS(=O)(=O)[O-])CCNC(=O)NC1CCC(CC2CCC(N=C=O)CC2)CC1 (stereo not drawn) [Example 5]	99.99	99.9	99.5	98.5	99.99	99.7	99.0	96.5	10 (≈ 4730 µg/mL)	7 (≈ 3310 µg/mL)
CC1(C)CC(NC(=O)OCC[N+](C)(C)CCCC(=O)[O-])CC(C)(CN=C=O)C1 (stereo not drawn) [Example 11]	99.99	99.9	98.3	95.8	99.99	99.8	97.1	94.5	10 (≈ 3980 µg/mL)	8 (≈ 3180 µg/mL)
C[N+](C)(CCOC(=O)NCCCCCCN=C=O)CC(=O)[O-] [Example 3]	99.99	99.9	99.0	97.2	99.99	99.8	98.5	96.5	11 (≈ 3470 µg/mL)	8 (≈ 2520 µg/mL)
CC[N+](CC)(CCCS(=O)(=O)[O-])CCOC(=O)Nc1ccc(Cc2ccc(N=C=O)cc2)cc1 [Example 2]	99.99	99.9	98.9	96.6	99.99	99.9	97.3	95.9	12 (≈ 5880 µg/mL)	10 (≈ 4900 µg/mL)
CC1(C)CC(NC(=O)OCC[N+](C)(C)CCS(=O)(=O)[O-])CC(C)(CN=C=O)C1 (stereo not drawn) [Example 10]	99.99	99.9	98.9	95.3	99.99	99.8	97.5	94.1	12 (≈ 5030 µg/mL)	9 (≈ 3780 µg/mL)
Cc1cc(NC(=O)NC2CC(C)(C)CC(C)(CN=C=O)C2)cc(C)[n+]1CCCS(=O)(=O)[O-] (stereo not drawn) [Example 9]	99.99	99.9	98.5	95.2	99.99	99.8	97.1	94.3	10 (≈ 4670 µg/mL)	8 (≈ 3730 µg/mL)
